Assay results from PubChem BioAssay (NCI).
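Compound exposure: 48 hours, 5 concentrations, 96-well plates. TGI is the concentration that stops growth completely.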

Key:
Assay in all cases: DTP human tumour cell line panel, 48 h
786-0 renal = system: 786-0 renal
A498 renal = system: A498 renal
A549 NSCLC = system: A549 NSCLC
ACHN renal = system: ACHN renal
CAKI-1 renal = system: CAKI-1 renal
CCRF-CEM leukemia = system: CCRF-CEM leukemia
COLO 205 colon = system: COLO 205 colon
DLD-1 colon = system: DLD-1 colon
DMS 114 small cell lung = system: DMS 114 small cell lung
DMS 273 small cell lung = system: DMS 273 small cell lung
HCT-116 colon = system: HCT-116 colon
HCT-15 colon = system: HCT-15 colon
HL-60(TB) leukemia = system: HL-60(TB) leukemia
HOP-18 NSCLC = system: HOP-18 NSCLC
HOP-62 NSCLC = system: HOP-62 NSCLC
HT29 colon = system: HT29 colon
IGROV1 ovarian = system: IGROV1 ovarian
K-562 leukemia = system: K-562 leukemia
KM12 colon = system: KM12 colon
LOX IMVI melanoma = system: LOX IMVI melanoma
LXFL 529 NSCLC = system: LXFL 529 NSCLC
M14 melanoma = system: M14 melanoma
MALME-3M melanoma = system: MALME-3M melanoma
MOLT-4 leukemia = system: MOLT-4 leukemia
NCI-H226 lung = system: NCI-H226 lung
NCI-H23 lung = system: NCI-H23 lung
NCI-H460 lung = system: NCI-H460 lung
NCI-H522 lung = system: NCI-H522 lung
OVCAR-3 ovarian = system: OVCAR-3 ovarian
OVCAR-4 ovarian = system: OVCAR-4 ovarian
OVCAR-5 ovarian = system: OVCAR-5 ovarian
OVCAR-8 ovarian = system: OVCAR-8 ovarian
RPMI-8226 leukemia = system: RPMI-8226 leukemia
RXF 393 renal = system: RXF 393 renal
RXF-631 renal = system: RXF-631 renal
SF-268 CNS = system: SF-268 CNS
SF-295 CNS = system: SF-295 CNS
SF-539 CNS = system: SF-539 CNS
SK-MEL-2 melanoma = system: SK-MEL-2 melanoma
SK-MEL-28 melanoma = system: SK-MEL-28 melanoma
SK-MEL-5 melanoma = system: SK-MEL-5 melanoma
SK-OV-3 ovarian = system: SK-OV-3 ovarian
SN12C renal = system: SN12C renal
SNB-19 CNS = system: SNB-19 CNS
SNB-75 CNS = system: SNB-75 CNS
SNB-78 CNS = system: SNB-78 CNS
SR leukemia = system: SR leukemia
SW-620 colon = system: SW-620 colon
TK-10 renal = system: TK-10 renal
U251 CNS = system: U251 CNS
UACC-257 melanoma = system: UACC-257 melanoma
XF 498 CNS = system: XF 498 CNS
EKVX NSCLC = system: EKVX NSCLC
HCC-2998 colon = system: HCC-2998 colon
HOP-92 NSCLC = system: HOP-92 NSCLC
KM20L2 colon = system: KM20L2 colon
M19-MEL melanoma = system: M19-MEL melanoma
UO-31 renal = system: UO-31 renal
BT-549 breast = system: BT-549 breast
DU-145 prostate = system: DU-145 prostate
HS 578T breast = system: HS 578T breast
MCF7 breast = system: MCF7 breast
MDA-MB-231 breast = system: MDA-MB-231 breast
MDA-MB-435 = system: MDA-MB-435
MDA-N = system: MDA-N
NCI/ADR-RES ovarian = system: NCI/ADR-RES ovarian
PC-3 prostate = system: PC-3 prostate
T-47D breast = system: T-47D breast
UACC-62 melanoma = system: UACC-62 melanoma

Cc1c(C(=O)C/C(=N/NC(=O)c2ccccc2)C(=O)Nc2ccc(Cl)cc2)[n+](=O)c2ccccc2n1[O-]
TGI (786-0 renal): > 100 µM | TGI (A498 renal): > 100 µM | TGI (A549 NSCLC): > 100 µM | TGI (ACHN renal): > 100 µM | TGI (CAKI-1 renal): > 100 µM | TGI (CCRF-CEM leukemia): 74.4 µM | TGI (COLO 205 colon): > 100 µM | TGI (DLD-1 colon): > 100 µM | TGI (DMS 114 small cell lung): > 100 µM | TGI (DMS 273 small cell lung): > 100 µM | TGI (HCT-116 colon): > 100 µM | TGI (HCT-15 colon): > 100 µM | TGI (HL-60(TB) leukemia): 56.4 µM | TGI (HOP-18 NSCLC): > 100 µM | TGI (HOP-62 NSCLC): > 100 µM | TGI (HT29 colon): > 100 µM | TGI (IGROV1 ovarian): > 100 µM | TGI (K-562 leukemia): > 100 µM | TGI (KM12 colon): > 100 µM | TGI (LOX IMVI melanoma): > 100 µM | TGI (LXFL 529 NSCLC): > 100 µM | TGI (M14 melanoma): > 100 µM | TGI (MALME-3M melanoma): > 100 µM | TGI (MOLT-4 leukemia): > 100 µM | TGI (NCI-H226 lung): > 100 µM | TGI (NCI-H23 lung): 92.6 µM | TGI (NCI-H460 lung): > 100 µM | TGI (NCI-H522 lung): > 100 µM | TGI (OVCAR-3 ovarian): > 100 µM | TGI (OVCAR-4 ovarian): > 100 µM | TGI (OVCAR-5 ovarian): > 100 µM | TGI (OVCAR-8 ovarian): > 100 µM | TGI (RPMI-8226 leukemia): > 100 µM | TGI (RXF 393 renal): > 100 µM | TGI (RXF-631 renal): > 100 µM | TGI (SF-268 CNS): > 100 µM | TGI (SF-295 CNS): > 100 µM | TGI (SF-539 CNS): > 100 µM | TGI (SK-MEL-2 melanoma): > 100 µM | TGI (SK-MEL-28 melanoma): > 100 µM | TGI (SK-MEL-5 melanoma): > 100 µM | TGI (SK-OV-3 ovarian): > 100 µM | TGI (SN12C renal): > 100 µM | TGI (SNB-19 CNS): > 100 µM | TGI (SNB-75 CNS): > 100 µM | TGI (SNB-78 CNS): > 100 µM | TGI (SR leukemia): > 100 µM | TGI (SW-620 colon): > 100 µM | TGI (TK-10 renal): > 100 µM | TGI (U251 CNS): > 100 µM | TGI (UACC-257 melanoma): > 100 µM | TGI (XF 498 CNS): > 100 µM

[N-]=[N+]=NC(c1cn(C2CC(O)C(CO)O2)c(=O)[nH]c1=O)C(Cl)Br (stereo not drawn)
TGI (786-0 renal): > 100 µM | TGI (A549 NSCLC): > 100 µM | TGI (ACHN renal): > 100 µM | TGI (CAKI-1 renal): > 100 µM | TGI (CCRF-CEM leukemia): > 100 µM | TGI (COLO 205 colon): > 100 µM | TGI (DLD-1 colon): > 100 µM | TGI (DMS 114 small cell lung): > 100 µM | TGI (DMS 273 small cell lung): > 100 µM | TGI (EKVX NSCLC): > 100 µM | TGI (HCC-2998 colon): > 100 µM | TGI (HCT-116 colon): > 100 µM | TGI (HCT-15 colon): > 100 µM | TGI (HL-60(TB) leukemia): > 100 µM | TGI (HOP-18 NSCLC): > 100 µM | TGI (HOP-92 NSCLC): > 100 µM | TGI (HT29 colon): > 100 µM | TGI (K-562 leukemia): > 100 µM | TGI (KM12 colon): > 100 µM | TGI (KM20L2 colon): > 100 µM | TGI (LOX IMVI melanoma): > 100 µM | TGI (LXFL 529 NSCLC): > 100 µM | TGI (M19-MEL melanoma): > 100 µM | TGI (MALME-3M melanoma): > 100 µM | TGI (MOLT-4 leukemia): > 100 µM | TGI (NCI-H226 lung): > 100 µM | TGI (NCI-H23 lung): > 100 µM | TGI (NCI-H460 lung): > 100 µM | TGI (NCI-H522 lung): > 100 µM | TGI (OVCAR-8 ovarian): > 100 µM | TGI (RPMI-8226 leukemia): > 100 µM | TGI (RXF 393 renal): > 100 µM | TGI (SF-295 CNS): > 100 µM | TGI (SF-539 CNS): > 100 µM | TGI (SK-MEL-2 melanoma): > 100 µM | TGI (SK-MEL-28 melanoma): > 100 µM | TGI (SK-MEL-5 melanoma): > 100 µM | TGI (SN12C renal): > 100 µM | TGI (SNB-19 CNS): > 100 µM | TGI (SNB-75 CNS): > 100 µM | TGI (SNB-78 CNS): > 100 µM | TGI (SR leukemia): > 100 µM | TGI (SW-620 colon): > 100 µM | TGI (TK-10 renal): > 100 µM | TGI (U251 CNS): > 100 µM | TGI (UO-31 renal): > 100 µM

COc1cc(/C=C/c2ccc(C)cc2)cc(OC)c1OC
TGI (786-0 renal): 36.6 µM | TGI (A549 NSCLC): 70.1 µM | TGI (ACHN renal): 35.5 µM | TGI (BT-549 breast): 19 µM | TGI (CAKI-1 renal): > 55.2 µM | TGI (CCRF-CEM leukemia): 25.4 µM | TGI (COLO 205 colon): 13.2 µM | TGI (DLD-1 colon): 20.7 µM | TGI (DMS 114 small cell lung): > 100 µM | TGI (DMS 273 small cell lung): 17.6 µM | TGI (DU-145 prostate): 13.7 µM | TGI (EKVX NSCLC): > 100 µM | TGI (HCT-116 colon): 14.2 µM | TGI (HCT-15 colon): 20.1 µM | TGI (HL-60(TB) leukemia): 21.9 µM | TGI (HOP-18 NSCLC): > 100 µM | TGI (HOP-62 NSCLC): 16.3 µM | TGI (HOP-92 NSCLC): 25.5 µM | TGI (HS 578T breast): 9.71 µM | TGI (HT29 colon): 9.45 µM | TGI (IGROV1 ovarian): > 91 µM | TGI (K-562 leukemia): > 100 µM | TGI (KM12 colon): 18.1 µM | TGI (KM20L2 colon): 4.69 µM | TGI (LOX IMVI melanoma): 13.5 µM | TGI (LXFL 529 NSCLC): > 48.8 µM | TGI (M14 melanoma): 15.3 µM | TGI (M19-MEL melanoma): > 88.9 µM | TGI (MALME-3M melanoma): 10.5 µM | TGI (MCF7 breast): 45.3 µM | TGI (MDA-MB-231 breast): > 100 µM | TGI (MDA-MB-435): 3.14 µM | TGI (MDA-N): 2.89 µM | TGI (MOLT-4 leukemia): 25.6 µM | TGI (NCI-H226 lung): 11.4 µM | TGI (NCI-H23 lung): 9.16 µM | TGI (NCI-H460 lung): > 32.8 µM | TGI (NCI-H522 lung): 5.7 µM | TGI (NCI/ADR-RES ovarian): 4.9 µM | TGI (OVCAR-3 ovarian): 6.93 µM | TGI (OVCAR-4 ovarian): 44.7 µM | TGI (OVCAR-5 ovarian): 21.9 µM | TGI (OVCAR-8 ovarian): 15.9 µM | TGI (PC-3 prostate): 11.4 µM | TGI (RPMI-8226 leukemia): 43.7 µM | TGI (SF-268 CNS): 11.2 µM | TGI (SF-295 CNS): 6.53 µM | TGI (SF-539 CNS): 7.07 µM | TGI (SK-MEL-2 melanoma): > 31.6 µM | TGI (SK-MEL-28 melanoma): 17.7 µM | TGI (SK-MEL-5 melanoma): 13.3 µM | TGI (SK-OV-3 ovarian): 39 µM | TGI (SN12C renal): 30.1 µM | TGI (SNB-19 CNS): 38.2 µM | TGI (SNB-75 CNS): 8.05 µM | TGI (SNB-78 CNS): 9.81 µM | TGI (SR leukemia): 16.6 µM | TGI (SW-620 colon): > 68.6 µM | TGI (T-47D breast): 20.6 µM | TGI (TK-10 renal): 18 µM | TGI (U251 CNS): 23.9 µM | TGI (UACC-257 melanoma): 31.5 µM | TGI (UACC-62 melanoma): 15.6 µM | TGI (UO-31 renal): 23.6 µM | TGI (XF 498 CNS): 13.9 µM
